From US20020183362A1, “2-Fluorobenzenesulfonyl compounds for the treatment of inflammation” (Pharmacia Corporation, priority 2000, published 2002)

Legend:
Human COX-1 [1] = molecular target: T1, Human COX-1 (Homo sapiens, UniProt P23219); test: Assay for COX-1 and COX-2 activity (PGE2 ELISA, recombinant enzyme), COX-1; assay type: biochemical; settings: Table I; pre-incubated 10-20 minutes, arachidonic acid 10 μM, stopped after ten minutes, pH 8.0
T1 construct: A 2.0 kb fragment containing the coding region of either human or murine COX-1 or human or murine COX-2; made in house; host or cells: SF9 insect cells (baculovirus, transfer vector pVL1393)
T1 sequence (P23219 24-599): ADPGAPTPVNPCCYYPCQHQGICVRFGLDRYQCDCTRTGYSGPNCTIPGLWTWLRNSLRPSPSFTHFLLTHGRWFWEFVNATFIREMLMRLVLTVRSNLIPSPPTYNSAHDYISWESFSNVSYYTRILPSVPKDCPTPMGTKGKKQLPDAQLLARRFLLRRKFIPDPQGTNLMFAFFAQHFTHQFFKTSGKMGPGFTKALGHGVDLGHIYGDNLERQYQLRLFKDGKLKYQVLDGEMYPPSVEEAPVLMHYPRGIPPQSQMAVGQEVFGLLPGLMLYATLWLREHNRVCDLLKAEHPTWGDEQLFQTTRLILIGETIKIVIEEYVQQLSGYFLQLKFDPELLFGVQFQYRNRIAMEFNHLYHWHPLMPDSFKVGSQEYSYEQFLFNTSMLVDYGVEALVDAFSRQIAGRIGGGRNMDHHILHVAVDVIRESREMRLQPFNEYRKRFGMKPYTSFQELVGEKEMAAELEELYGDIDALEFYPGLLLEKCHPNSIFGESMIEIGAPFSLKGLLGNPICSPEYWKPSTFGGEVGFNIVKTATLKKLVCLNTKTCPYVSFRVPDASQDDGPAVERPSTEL
Description: (§1) Recombinant baculoviruses were isolated by transfecting 4 μg of baculovirus transfer vector DNA into SF9 insect cells (2×10^8) along with 200 ng of linearized baculovirus plasmid DNA by the calcium phosphate method. See M. D. Summers and G. E. Smith, A Manual of Methods for Baculovirus Vectors and Insect Cell Culture Procedures, Texas Agric. Exp. Station Bull. […] Recombinant viruses were purified by three rounds of plaque purification and high titer (10^7-10^8 pfu/mL) stocks of virus were prepared. For large scale production, SF9 insect cells were infected in 10 liter fermentors (0.5×10^6/mL) with the recombinant baculovirus stock such that the multiplicity of infection was 0.1. After 72 hours the cells were centrifuged and the cell pellet homogenized in Tris/Sucrose (50 mM: 25%, pH 8.0) containing 1% 3-[(3-cholamidopropyl)dimethylammonio]-1-propanesulfonate (CHAPS). The homogenate was centrifuged at 10,000×G for 30 minutes, and the resultant supernatant was stored at −80° C. before being assayed for COX activity.
COX activity was assayed as PGE2 formed/μg protein/time using an ELISA to detect the prostaglandin released. CHAPS-solubilized insect cell membranes containing the appropriate COX enzyme were incubated in a potassium phosphate buffer (50 mM, pH 8.0) containing epinephrine, phenol, and heme with the addition of arachidonic acid (10 μM). Compounds were pre-incubated with the enzyme for 10-20 minutes prior to the addition of arachidonic acid. […] The PGE2 formed was measured by standard ELISA technology (Cayman Chemical).

Human COX-2 [2] = molecular target: T2, Human COX-2 (Homo sapiens, UniProt P35354); test: Fast assay for COX-1 and COX-2 activity (PGE2 ELISA), COX-2; assay type: biochemical; settings: Table II, pre-incubated 10 minutes at 25° C., arachidonic acid 10 μM, stopped after two minutes, pH 7.5
T2 construct: A 2.0 kb fragment containing the coding region of either human or murine COX-1 or human or murine COX-2; made in house; host or cells: SF9 insect cells (baculovirus, transfer vector pVL1393)
T2 sequence (P35354 18-604): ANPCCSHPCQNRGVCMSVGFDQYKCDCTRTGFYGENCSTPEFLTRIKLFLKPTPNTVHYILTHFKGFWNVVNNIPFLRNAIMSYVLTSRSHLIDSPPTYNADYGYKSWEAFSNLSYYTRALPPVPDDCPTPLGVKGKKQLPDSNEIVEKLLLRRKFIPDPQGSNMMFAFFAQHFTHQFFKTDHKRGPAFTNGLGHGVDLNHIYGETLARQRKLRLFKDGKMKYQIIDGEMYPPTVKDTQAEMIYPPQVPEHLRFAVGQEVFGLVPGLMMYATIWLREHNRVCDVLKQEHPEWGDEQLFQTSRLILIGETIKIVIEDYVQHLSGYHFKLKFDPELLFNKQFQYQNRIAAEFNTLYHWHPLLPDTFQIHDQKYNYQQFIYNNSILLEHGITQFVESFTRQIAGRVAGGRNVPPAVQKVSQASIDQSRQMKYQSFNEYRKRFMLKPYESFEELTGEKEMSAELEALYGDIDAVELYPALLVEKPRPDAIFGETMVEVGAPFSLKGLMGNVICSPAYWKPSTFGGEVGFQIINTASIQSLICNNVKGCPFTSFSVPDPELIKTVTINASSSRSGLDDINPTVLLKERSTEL
Description: (§2) Recombinant COX-1 and COX-2 were prepared as described by Gierse et al, [[…]., 305, 479-84 (1995)]. A 2.0 kb fragment containing the coding region of either human or murine COX-1 or human or murine COX-2 was cloned into a BamH1 site of the baculovirus transfer vector pVL1393 (Invitrogen) to generate the baculovirus transfer vectors for COX-1 and COX-2 in a manner similar to the method of D. R. O'Reilly et al (Baculovirus Expression Vectors: A Laboratory Manual (1992)). Recombinant baculoviruses were isolated by transfecting 4 μg of baculovirus transfer vector DNA into SF9 insect cells (2×10^8) along with 200 ng of linearized baculovirus plasmid DNA by the calcium phosphate method. See M. D. Summers and G. E. Smith, A Manual of Methods for Baculovirus Vectors and Insect Cell Culture Procedures, Texas Agric. Exp. Station Bull. 1555 (1987). Recombinant viruses were purified by three rounds of plaque purification and high titer (10^7-10^8 pfu/mL) stocks of virus were prepared. For large scale production, SF9 insect cells were infected in 10 liter fermentors (0.5×10^6/mL) with the recombinant baculovirus stock such that the multiplicity of infection was 0.1. After 72 hours the cells were centrifuged and the cell pellet homogenized in Tris/Sucrose (50 mM: 25%, pH 8.0) containing 1% 3-[(3-cholamidopropyl)dimethylammonio]-1-propanesulfonate (CHAPS). The homogenate was centrifuged at 10,000×G for 30 minutes, and the resultant supernatant was stored at −80° C. before being assayed for COX activity.
(§3) COX activity was assayed as PGE2 formed/μg protein/time using an ELISA to detect the prostaglandin released. CHAPS-solubilized insect cell membranes containing the appropriate COX enzyme were incubated in a potassium phosphate buffer (0.05 M Potassium phosphate, pH 7.5, 2 μM phenol, 1 μM heme, 300 μM epinephrine) with the addition of 20 μl of 100 μM arachidonic acid (10 μM). Compounds were pre-incubated with the enzyme for 10 minutes at 25° C. prior to the addition of arachidonic acid. Any reaction between the arachidonic acid and the enzyme was stopped after two minutes at 37° C./room temperature by transferring 40 μl of reaction mix into 160 μl ELISA buffer and 25 μM indomethacin. The PGE2 formed was measured by standard ELISA technology (Cayman Chemical).

Human COX-1 [3] = molecular target: T1, Human COX-1; test: Fast assay for COX-1 and COX-2 activity (PGE2 ELISA), COX-1; assay type: biochemical; settings: Table II, pre-incubated 10 minutes at 25° C., arachidonic acid 10 μM, stopped after two minutes, pH 7.5
Description: as §1
as §3, with “Any reaction between the arachidonic acid and the enzyme was stopped after two minutes at 37° C./room temperature by transferring 40 μl of reaction mix into 160 μl ELISA buffer and 25 μM indomethacin.” left out

Human COX-2 [4] = molecular target: T2, Human COX-2; test: Assay for COX-1 and COX-2 activity (PGE2 ELISA, recombinant enzyme), COX-2; assay type: biochemical; settings: Table I; pre-incubated 10-20 minutes, arachidonic acid 10 μM, stopped after ten minutes, pH 8.0
Description: The COX-2 inhibition activity of the compounds of this invention illustrated in the Examples was determined by the following methods.
as §2
COX activity was assayed as PGE2 formed/μg protein/time using an ELISA to detect the prostaglandin released. CHAPS-solubilized insect cell membranes containing the appropriate COX enzyme were incubated in a potassium phosphate buffer (50 mM, pH 8.0) containing epinephrine, phenol, and heme with the addition of arachidonic acid (10 μM). Compounds were pre-incubated with the enzyme for 10-20 minutes prior to the addition of arachidonic acid. Any reaction between the arachidonic acid and the enzyme was stopped after ten minutes at 37° C./room temperature by transferring 40 μl of reaction mix into […] and 25 μM indomethacin. The PGE2 formed was measured by standard ELISA technology (Cayman Chemical).

Structure (SMILES) | melting point [°C] | IC50 (Human COX-1 [1]) [nM] | IC50 (Human COX-2 [2]) [nM] | IC50 (Human COX-1 [3]) [nM] | IC50 (Human COX-2 [4]) [nM]
CS(=O)(=O)c1ccc(-c2cc(C(F)(F)F)nn2-c2ccc(C#N)cc2)cc1F [Example 16, 4-[5-[3-Fluoro-4-(methylsulfonyl)Phenyl]-3-(trifluoromethyl)-1H-Pyrazol-1-yl]benzonitrile] | 152 to 153 | > 100000 | 870 | > 100000 | 250
CS(=O)(=O)c1ccc(C2=C(c3ccccc3)C(=O)OC2)cc1F [Example 24] | 161 to 162 | > 100000 | 3730 | > 100000 | 15900
NS(=O)(=O)c1ccc(-c2cscc2-c2ccccc2)cc1F [Example 1, 2-Fluoro-4-(4-phenyl-3-thienyl)benzenesulfonamide] | 170.9 to 171 | 37900 | 13 | 29400 | 11
Cc1ccc(-c2cc(C(F)F)nn2-c2ccc(S(N)(=O)=O)c(F)c2)cc1Cl [Example 3, 4-[5-(3-chloro-4-methylphenyl)-3-(difluoromethyl)-1H-pyrazol-1-yl]-2-fluorobenzenesulfonamide] | 160 to 161 | 16300 | 4 | 26900 | 5
CS(=O)(=O)c1ccc(-c2cc(C(F)(F)F)nn2-c2ccc(F)cc2)cc1F [Example 11, 5-[3-Fluoro-4-(methylsulfonyl)phenyl]-1-(4-fluorophenyl)-3-(trifluoromethyl)-1H-pyrazole] | 228 to 229 | > 100000 | 130 | 22600 | 150
CS(=O)(=O)c1ccc(-c2cc(C(F)(F)F)nn2C2CCCCC2)cc1F [Example 12, 1-Cyclohexyl-5-[3-fluoro-4-(methylsulfonyl)phenyl]-3-(trifluoromethyl)-1H-pyrazole] | 228 to 229 | > 100000 | 140 | > 100000 | 180
CS(=O)(=O)c1ccc(-c2cc(C(F)(F)F)nn2-c2cccc(C(F)(F)F)c2)cc1F [Example 13, 5-[3-Fluoro-4-(methylsulfonyl)phenyl]-3-(trifluoromethyl)-1-[3-(trifluoromethyl)phenyl]-1H-pyrazole] |  | > 100000 | 150 | > 100000 | 180
Cc1ccc(-c2cc(C(F)(F)F)nn2-c2ccc(S(N)(=O)=O)c(F)c2)cc1 [Example 4, 4-[5-(4-Methylphenyl)-3-(trifluoromethyl)-1H-pyrazol-1-yl]-2-fluorobenzenesulfonamide] |  | 40500 | 6 | 20300 | 19
CS(=O)(=O)c1ccc(-c2cscc2-c2ccccc2)cc1F [Example 2, 3-[3-Fluoro-4-(methylsulfonyl)phenyl]-4-phenylthiophene] | 140 to 141 | > 100000 | 43 | > 100000 | 51
CS(=O)(=O)c1ccc(-c2cc(C(F)F)nn2C2CCCCC2)cc1F [Example 19, 1-Cyclohexyl-3-(difluoromethyl)-5-[3-fluoro-4-(methylsulfonyl)phenyl]-1H-pyrazole] |  | > 100000 | 340 | > 100000 | 700
Cc1cccc(-n2nc(C(F)(F)F)cc2-c2ccc(S(C)(=O)=O)c(F)c2)c1 [Example 17, 5-[3-Fluoro-4-(methylsulfonyl)phenyl]-1-(3-methylphenyl)-3-(trifluoromethyl)-1H-pyrazole] | 129 to 130 | > 100000 | 27 | 4360 | 1050
Cc1onc(-c2ccc(F)cc2)c1-c1ccc(S(N)(=O)=O)c(F)c1 [Example 22, 2-Fluoro-4-[3-(4-fluorophenyl)-5-methyl-4-isoxazolyl]-benzenesulfonamide] | 176 to 177 | > 100000 | 5 | > 100000 | 15
Cc1ccc(-n2nc(C(F)(F)F)cc2-c2ccc(S(C)(=O)=O)c(F)c2)cc1Cl [Example 15, 1-(3-Chloro-4-methylphenyl)-5-[3-fluoro-4-(methylsulfonyl)phenyl]-3-(trifluoromethyl)-1H-pyrazole] | 144 to 145 | > 100000 | 15 | 2360 | 16
CS(=O)(=O)c1ccc(-c2cc(C(F)F)nn2-c2cccc(C(F)(F)F)c2)cc1F [Example 21] |  | > 100000 | 290 | > 100000 | 550
NS(=O)(=O)c1ccc(-n2nc(C(F)(F)F)cc2-c2ccc(Cl)cc2)cc1F [Example 5, 4-[5-(4-Chlorophenyl)-3-trifluoromethyl-1H-pyrazol-1-yl]-2-fluorobenzenesulfonamide] |  | 45900 | 4 | 19900 | 5
CS(=O)(=O)c1ccc(-c2cc(C(F)(F)F)nn2-c2ccc(OC(F)(F)F)cc2)cc1F [Example 14, 5-[3-Fluoro-4-(methylsulfonyl)phenyl]-3-(trifluoromethyl)-1-[4-(trifluoromethoxy)phenyl]-1H-pyrazole] | 110 to 112 | > 100000 | 64 | > 100000 | 62
